The values that follow come from patent US10968198B2, “Biaryltriazole inhibitors of macrophage migration inhibitory factor” (YALE UNIVERSITY, priority 2015, dated 2021).

The assay concerns the target human MIF (Homo sapiens (Human), UniProt P14174). As to the kind of experiment: X-ray crystallography of complexes with human MIF. As to conditions: co-crystal or soak. The procedure:
The solution was centrifuged at 13,000×g to remove precipitated compound and used to set up hanging-drop crystallization experiments. A reservoir of 2.0 M ammonium sulfate, 0.1 M Tris pH 7, and 3% isopropanol was added to the protein solution in a 1:1 ratio and stored at 20° C. Diffraction-quality crystals with a rod morphology grew within two weeks. The crystals were cryo-protected in 25% glycerol, 2.0M ammonium sulfate, 0.1 M Tris pH 7, and 3% isopropanol. Data was collected at the Advanced Photon Source remotely on the NE-CAT 24-ID-E beam line. […] Crystals were obtained by the hanging-drop method at 20° C. A reservoir of 2.2 M ammonium sulfate, 0.1 M Tris pH 7, and 3% isopropanol mixed in a 1:1 ratio with rhMIF (16 mg/mL) was used to produce 2 μL drops. […] Crystals were cryo-protected with 25% glycerol, 2.2 M ammonium sulfate, 0.1 M Tris pH 7, and 3% isopropanol. […] HKL2000 was used to index, integrate, and scale the MIF-3a data set in the […] space group and the MIF-3b in the P212121 space group. Phases were obtained by molecular replacement with PDB file 3U18 using the CCP4 and PHASER programs. Model building was performed in COOT with iterative restrained refinement with REFMAC.
As to `Oc1ccc(-n2cc(-c3ccc4ccccc4n3)nn2)cc1` [Example 3a, 4-(4-(quinolin-2-yl)-1H-1,2,3-triazol-1-yl)phenol], the “binding site in X-ray crystal structure of complex with human MIF” value is on record as “binding of these inhibitors in the tautomerase active site”. The value for `Oc1ccc(-n2cc(-c3ccc4cc(OCCOCCN5CCOCC5)ccc4n3)nn2)cc1` [Example 3v, 4-(4-(6-(2-(2-morpholinoethoxy)ethoxy)quinolin-2-yl)-1H-1,2,3-triazol-1-yl)phenol] was “binding of these inhibitors in the tautomerase active site”; that for `COCCOc1ccc2nc(-c3cn(-c4ccc(O)cc4)nn3)ccc2c1` [Example 3b, 4-(4-(6-(2-methoxyethoxy)quinolin-2-yl)-1H-1,2,3-triazol-1-yl)phenol] was “binding of these inhibitors in the tautomerase active site”.
